According to US12048730B2, “Pharmaceutical composition for preventing or treating cancer, containing oligopeptide as active ingredient” (L-BASE CO., LTD., priority 2018, dated 2024):
“Also recorded” adds a separate entry of the source.

Experiments:
Type in all cases: cell-based
[1] = test system: blood cancer cell line (Daudi); assay: MTS assay, cancer cell proliferation inhibition, blood cancer cell line; settings: 500 μM oligopeptide, 72 hours, OD 490 nm, vs untreated control (FIG. 3)
Description: (§1) To measure the cancer cell proliferation inhibitory effect of the oligopeptides synthesized in Example 1, an MTS (3-(4,5-dimethylthiazol-2-y)-5-(3-carboxymethoxyphenyl)-2-(4-sulfophenyl)-2H-tetrazolium, inner salt) assay for cancer cells was performed. Specifically, each of a lung cancer cell line (H1975), a breast cancer cell line (MDA-MB-231) and a blood cancer cell line (Daudi), which were cultured in 96-well microplates, was treated with 500 μM of the oligopeptides synthesized in Example 1, and incubated in a 37° C. incubator for 72 hours. Each cell culture was treated with an MTS reagent and incubated in a 37° C. incubator for 30 minutes or more, and absorbance (OD) was measured at 490 nm.

[2] = test system: breast cancer cell line (MDA-MB-231); assay: MTS assay, cancer cell proliferation inhibition, breast cancer cell line; settings: MDA-MB-231, 500 μM oligopeptide, 72 hours, OD 490 nm, vs untreated control (FIG. 2)
Description: as §1

[3] = test system: lung cancer cell line (H1975); assay: MTS assay, cancer cell proliferation inhibition, lung cancer cell line; settings: H1975, 500 μM oligopeptide, 72 hours, OD 490 nm, vs untreated control (FIG. 1)
Description: as §1

Sequence | cancer cell proliferation inhibitory activity [1] | cancer cell proliferation inhibitory effect [2] | cancer cell proliferation inhibitory activity [3]
ATWPDTVRQL (pep #1) | better cancer cell proliferation inhibitory activity than an untreated control | – | –
GMLVLTPTRE (pep #8) | better cancer cell proliferation inhibitory activity than an untreated control; also recorded: excellent cancer cell proliferation inhibitory activity | better cancer cell proliferation inhibitory effect than an untreated control | excellent cancer cell proliferation inhibitory effects
QTVMTSATWP (pep #6) | better cancer cell proliferation inhibitory activity than an untreated control | – | excellent cancer cell proliferation inhibitory effects
CSKYSYKGLK (pep #4) | better cancer cell proliferation inhibitory activity than an untreated control | better cancer cell proliferation inhibitory effect than an untreated control | –
TSATWPDTVR (pep #2) | better cancer cell proliferation inhibitory activity than an untreated control | better cancer cell proliferation inhibitory effect than an untreated control | –
SREQRNGPGM (pep #9) | – | – | excellent cancer cell proliferation inhibitory effects
WPDTVRQLAL (pep #3) | better cancer cell proliferation inhibitory activity than an untreated control | better cancer cell proliferation inhibitory effect than an untreated control; also recorded: excellent cancer cell proliferation inhibitory effects | –
SICIYGGRNR (pep #7) | better cancer cell proliferation inhibitory activity than an untreated control | better cancer cell proliferation inhibitory effect than an untreated control; also recorded: excellent cancer cell proliferation inhibitory effects | excellent cancer cell proliferation inhibitory effects
AECSKYSYKG (pep #5) | better cancer cell proliferation inhibitory activity than an untreated control; also recorded: excellent cancer cell proliferation inhibitory activity | better cancer cell proliferation inhibitory effect than an untreated control; also recorded: excellent cancer cell proliferation inhibitory effects | –
